Patent US20240124442A1, “TRICYCLIC-AMIDO-BICYCLIC PRMT5 INHIBITORS” (AMGEN INC., priority 2021, published 2024)

Legend:
HCT116 MTAP null cells = experiment: HCT116 MTAP null cell line proliferation / cell viability (CellTiter-Glo, 6 days); assay type: cell-based; settings: 144 h; HCT116 MTAP null cells, 6 days treatment, CellTiter-Glo cell viability; read-out: HCT-116 MTAP null IC50
How it was run: (§1)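 WT vs MTAP-null HCT116, 6 d drug, CTG readout. 1:3 × 8–9 pts (top 1/10 μM) or 1:2 × 22 pts (top 10/50 μM). IC50 by 4PL or Hill −1 fit.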

HCT116 WT cells = experiment: HCT116 WT (parent) cell line proliferation / cell viability (CellTiter-Glo, 6 days); assay type: cell-based; settings: Homo sapiens, HCT-116, 144 h, 6 days treatment
How it was run: as §1

Compound	IC50 (HCT116 MTAP null cells)	IC50 (HCT116 WT cells)
CN(C(=O)c1cc2c3c(c(N)nc2cc1F)COC3)[C@H]1COc2cc(S(C)(=O)=O)ccc21 (single isomer, unassigned) [Example 354]	3870 nM	50000 nM
CN(C(=O)c1cc2c3c(c(N)nc2cc1F)COC3)[C@@H]1COc2cc(C(F)(F)F)cc(F)c21 (single isomer, unassigned) [Example 355]	26 nM	1180 nM
CN(C(=O)c1cc2c3c(c(N)nc2cc1F)COC3)[C@H]1COc2cc(C(F)(F)F)cc(F)c21 (single isomer, unassigned) [Example 356]	1040 nM	11300 nM
CN(C(=O)c1cc2c3c(c(N)nc2cc1F)COC3)[C@@H]1COc2cc(S(F)(F)(F)(F)F)ccc21 (single isomer, unassigned) [Example 357]	12 nM	208 nM
CN(C(=O)c1cc2c3c(c(N)nc2cc1F)COC3)[C@H]1COc2cc(S(F)(F)(F)(F)F)ccc21 (single isomer, unassigned) [Example 358]	1200 nM	8850 nM
C[C@H]1OCc2c1c(N)nc1cc(F)c(C(=O)N(C)[C@@H]3CCc4nc(C(F)(F)F)ccc43)cc21 (single isomer, unassigned) [Example 359]	17 nM	1230 nM
C[C@H]1OCc2c1c(N)nc1cc(F)c(C(=O)N(C)[C@H]3CCc4nc(C(F)(F)F)ccc43)cc21 (single isomer, unassigned) [Example 360]	810 nM	42300 nM
CN(C(=O)c1cc2c3c(c(N)nc2cc1Cl)COC3)[C@@H]1COc2cc(C(F)(F)F)ncc21 (single isomer, unassigned) [Example 361]	29 nM	1340 nM
CN(C(=O)c1cc2c3c(c(N)nc2cc1Cl)COC3)[C@H]1COc2cc(C(F)(F)F)ncc21 (single isomer, unassigned) [Example 362]	744 nM	35600 nM
CN(C(=O)c1ccc2nc(N)c3cnn(C)c3c2c1)[C@@H]1CCc2nc(C(F)(F)F)ccc21 (single isomer, unassigned) [Example 363]	17 nM	2500 nM
CN(C(=O)c1ccc2nc(N)c3cnn(C)c3c2c1)[C@H]1CCc2nc(C(F)(F)F)ccc21 (single isomer, unassigned) [Example 364]	2860 nM	34900 nM
CCN(C(=O)c1ccc2nc(N)c3cnn(C)c3c2c1)[C@@H]1COc2cc(C(F)(F)F)ccc21 (single isomer, unassigned) [Example 365]	5 nM	212 nM
CN(C(=O)c1ccc2nc(N)c3cnn(C)c3c2c1)[C@@H]1COc2cc(S(F)(F)(F)(F)F)ccc21 (single isomer, unassigned) [Example 366]	6 nM	155 nM
CN(C(=O)c1ccc2nc(N)c3cnn(C)c3c2c1)[C@H]1COc2cc(S(F)(F)(F)(F)F)ccc21 (single isomer, unassigned) [Example 367]	485 nM	5270 nM
CN(C(=O)c1ccc2nc(N)c3cnn(C)c3c2c1)[C@@H]1CCc2cc(Br)ccc21 (single isomer, unassigned) [Example 368]	37 nM	2530 nM
CN(C(=O)c1ccc2nc(N)c3cnn(C)c3c2c1)[C@H]1CCc2cc(Br)ccc21 (single isomer, unassigned) [Example 369]	519 nM	4130 nM
CN(C(=O)c1ccc2nc(N)c3cnn(C)c3c2c1)[C@@H]1CCc2nc(Br)ccc21 (single isomer, unassigned) [Example 370]	29 nM	1800 nM
CN(C(=O)c1cc2c(cn1)nc(N)c1cnn(C)c12)[C@@H]1CCc2nc(C(F)(F)F)ccc21 (single isomer, unassigned) [Example 371]	27 nM	1620 nM
CCN(C(=O)c1cc2c(cn1)nc(N)c1cnn(C)c12)[C@@H]1COc2cc(C(F)(F)F)ccc21 (single isomer, unassigned) [Example 372]	10 nM	114 nM
CN(C(=O)c1cc2c(cc1F)nc(N)c1cnn(C)c12)[C@@H]1COc2cc(C#N)ccc21 (single isomer, unassigned) [Example 373]	4 nM	235 nM

Further lines, results first:

IC50 (HCT116 MTAP null cells)	IC50 (HCT116 WT cells)	Compound
272 nM	22400 nM	CN(C(=O)c1cc2c(cc1F)nc(N)c1cnn(C)c12)[C@H]1COc2cc(C#N)ccc21 (single isomer, unassigned) [Example 374]
9 nM	568 nM	CN(C(=O)c1cc2c(cc1F)nc(N)c1cnn(C)c12)[C@@H]1CCc2nc(C(F)(F)F)ccc21 (single isomer, unassigned) [Example 375]
882 nM	12800 nM	CN(C(=O)c1cc2c(cc1F)nc(N)c1cnn(C)c12)[C@H]1CCc2nc(C(F)(F)F)ccc21 (single isomer, unassigned) [Example 376]
10 nM	595 nM	CN(C(=O)c1cc2c(cc1F)nc(N)c1cnn(C)c12)[C@@H]1COc2nc(C(F)(F)F)ccc21 (single isomer, unassigned) [Example 377]
10 nM	239 nM	CN(C(=O)c1cc2c(cc1F)nc(N)c1cnn(C)c12)[C@@H]1COc2cc(S(C)(=O)=O)ccc21 (single isomer, unassigned) [Example 378]
490 nM	13500 nM	CN(C(=O)c1cc2c(cc1F)nc(N)c1cnn(C)c12)[C@H]1COc2cc(S(C)(=O)=O)ccc21 (single isomer, unassigned) [Example 379]
23 nM	1540 nM	CN(C(=O)c1cc2c(cc1F)nc(N)c1cnn(C)c12)[C@@H]1COc2cc(C(F)(F)F)cc(F)c21 (single isomer, unassigned) [Example 380]
195 nM	11100 nM	CN(C(=O)c1cc2c(cc1F)nc(N)c1cnn(C)c12)[C@H]1COc2cc(C(F)(F)F)cc(F)c21 (single isomer, unassigned) [Example 381]
4 nM	63 nM	CN(C(=O)c1cc2c(cc1F)nc(N)c1cnn(C)c12)[C@@H]1COc2cc(S(F)(F)(F)(F)F)ccc21 (single isomer, unassigned) [Example 382]
380 nM	5660 nM	CN(C(=O)c1cc2c(cc1F)nc(N)c1cnn(C)c12)[C@H]1COc2cc(S(F)(F)(F)(F)F)ccc21 (single isomer, unassigned) [Example 383]
869 nM	17200 nM	CN(C(=O)c1cc2c(cc1Cl)nc(N)c1cnn(C)c12)[C@]1(C)CCc2nc(C(F)(F)F)ccc21 (single isomer, unassigned) [Example 384]
7 nM	297 nM	CN(C(=O)c1cc2c(cc1Cl)nc(N)c1cnn(C)c12)[C@@H]1CCc2nc(C(F)(F)F)ccc21 (single isomer, unassigned) [Example 385]
552 nM	13600 nM	CN(C(=O)c1cc2c(cc1Cl)nc(N)c1cnn(C)c12)[C@H]1CCc2nc(C(F)(F)F)ccc21 (single isomer, unassigned) [Example 386]
5 nM	136 nM	CN(C(=O)c1cc2c(cc1Cl)nc(N)c1cnn(C)c12)[C@@H]1COc2nc(C(F)(F)F)ccc21 (single isomer, unassigned) [Example 387]
136 nM	7540 nM	CN(C(=O)c1cc2c(cc1Cl)nc(N)c1cnn(C)c12)[C@H]1COc2nc(C(F)(F)F)ccc21 (single isomer, unassigned) [Example 388]
